Values of other authors as cited in patent US20230271770A1, “Anti-Viral Pharmaceutical Formulations Administered Via Devices for Lung Targeted Delivery” (priority 2020, published 2023).

Details: HCQ particles typically inhaled to treat asthma; cited from earlier work

With CCN(CCO)CCCC(C)Nc1ccnc2cc(Cl)ccc12 (stereo not shown) [HCQ, hydroxychloroquine] as the compound, how does the “mean HCQ particle size” value read?
The value was 3.2 μm.
